The record followed here is ChEMBL document CHEMBL1152717, “Discovery of mu-opioid selective ligands derived from 1-aminotetralin scaffolds made via metal-catalyzed ring-opening reactions” (Bioorg Med Chem Lett, 2009).

pEC50, pIC50: −log10 of the molar value.

The target in assay [1] is T1, Mu-type opioid receptor (Homo sapiens, UniProt P35372). The experiment in a line: Displacement of [125I]FK33824 from human cloned mu opioid receptor.
Assay [2] concerns the target Kappa-type opioid receptor (Homo sapiens, UniProt P41145). The experiment in a line: Displacement of [125I]U69593 from human cloned kappa opioid receptor.
Assay [3] deals with Delta-type opioid receptor (Homo sapiens, UniProt P41143). Briefly: Displacement of [125I]deltorphin 2 from human cloned delta opioid receptor.
For assay [4], the target named is T1, Mu-type opioid receptor. The following applies: at 100 µM.
Description: Intrinsic activity at human cloned mu opioid receptor at 100 uM by [35S]GTPgammaS binding assay relative to DAMGO
Assay [5] concerns the target T1, Mu-type opioid receptor. Briefly: Agonist activity at human cloned mu opioid receptor by [35S]GTPgammaS binding assay. It is filed as functional.

Sequence of Delta-type opioid receptor (P41143 whole entry): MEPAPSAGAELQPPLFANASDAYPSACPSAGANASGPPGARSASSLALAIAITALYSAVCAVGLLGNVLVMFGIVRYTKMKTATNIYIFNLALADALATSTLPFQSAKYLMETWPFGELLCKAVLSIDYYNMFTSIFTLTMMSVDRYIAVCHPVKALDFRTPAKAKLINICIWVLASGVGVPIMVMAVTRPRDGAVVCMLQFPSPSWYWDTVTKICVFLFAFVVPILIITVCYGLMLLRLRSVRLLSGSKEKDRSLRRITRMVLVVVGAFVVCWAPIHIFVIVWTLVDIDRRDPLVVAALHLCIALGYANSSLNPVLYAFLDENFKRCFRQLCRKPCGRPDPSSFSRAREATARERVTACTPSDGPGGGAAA
Sequence of Kappa-type opioid receptor (P41145 whole entry): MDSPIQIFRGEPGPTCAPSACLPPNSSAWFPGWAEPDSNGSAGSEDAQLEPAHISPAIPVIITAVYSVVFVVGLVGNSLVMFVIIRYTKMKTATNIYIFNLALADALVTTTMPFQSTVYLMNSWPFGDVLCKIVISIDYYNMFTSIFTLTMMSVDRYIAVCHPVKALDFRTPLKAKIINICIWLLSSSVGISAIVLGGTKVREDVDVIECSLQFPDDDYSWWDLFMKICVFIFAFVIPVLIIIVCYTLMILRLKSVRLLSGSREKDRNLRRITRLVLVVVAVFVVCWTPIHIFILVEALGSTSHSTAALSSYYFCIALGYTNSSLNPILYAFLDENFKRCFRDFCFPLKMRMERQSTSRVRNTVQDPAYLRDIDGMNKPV
T1 sequence (P35372 whole entry): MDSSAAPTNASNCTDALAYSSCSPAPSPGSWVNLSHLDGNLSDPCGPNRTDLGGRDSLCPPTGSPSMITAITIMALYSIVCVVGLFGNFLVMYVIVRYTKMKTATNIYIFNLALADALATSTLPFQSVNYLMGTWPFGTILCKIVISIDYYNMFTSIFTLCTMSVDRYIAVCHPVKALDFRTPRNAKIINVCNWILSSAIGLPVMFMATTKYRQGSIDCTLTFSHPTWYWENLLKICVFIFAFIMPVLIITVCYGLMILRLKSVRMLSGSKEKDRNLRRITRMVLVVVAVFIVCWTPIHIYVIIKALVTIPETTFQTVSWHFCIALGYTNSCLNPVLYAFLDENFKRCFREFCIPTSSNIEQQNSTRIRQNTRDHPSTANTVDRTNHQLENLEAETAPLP

Regarding `COCCN(C(=O)c1sccc1Cl)[C@@H]1c2ccccc2C=C[C@H]1N1CCN(c2ccccc2)CC1`, the pIC50 was 7.24 on Mu-type opioid receptor [1], 5.88 in assay [2] and 5.91 in assay [3].

On Mu-type opioid receptor [1], `COCCN(C(=O)c1sccc1Cl)[C@H]1c2ccccc2C=C[C@@H]1N1CCN(c2ccccc2)CC1` had a pIC50 of 5.55.

`COCCN[C@@H]1c2ccccc2CC[C@H]1c1ccsc1`: the pIC50 in assay [2] is 6.15; in assay [3], 5.42.

`C[C@@]12CCCCC[C@@H](Cc3ccc(O)cc31)[C@@H]2N` had an Emax on Mu-type opioid receptor [4] of 6%.

Turning to `COCCNC1c2ccccc2CCC1c1ccsc1` (racemic), the pIC50 in assay [2] is 5.66.

At Mu-type opioid receptor [5], `COCCN(C(=O)COCc1ccccc1)C1c2ccccc2C=CC1N1CCN(c2ccccc2)CC1` (racemic) had a pEC50 of less than 4.05. For the same molecule, the pIC50 is 6.68 at Mu-type opioid receptor [1], less than 5.00 in assay [2] and 5.41 in assay [3]. Also, the Emax on Mu-type opioid receptor [4] was determined as 10%.

With `COCCN(C(=O)Cc1cccc(OC)c1)C1c2ccccc2C=CC1N1CCN(c2ccccc2)CC1` (racemic), on Mu-type opioid receptor [5], the pEC50 is less than 4.05. The pIC50 on Mu-type opioid receptor [1] was 6.82; in assay [2], less than 5.00; in assay [3], 5.83. On Mu-type opioid receptor [4], this molecule had an Emax of 10%.

The molecule `COCCN(C(=O)Cc1ccc(Cl)cc1)C1c2ccccc2C=CC1N1CCN(c2ccccc2)CC1` (racemic) gave a negative-log EC50 (pEC50) on Mu-type opioid receptor [5] of less than 4.05. Further, the pIC50 at Mu-type opioid receptor [1] is 6.74; in assay [2] it was 5.10; in assay [3], 5.71. Also, the Emax on Mu-type opioid receptor [4] came out at 0%.

On to `COCCN(C(=O)c1sccc1Cl)C1c2ccccc2C=CC1N1CCN(c2ccccc2)CC1` (racemic), for which the pEC50 on Mu-type opioid receptor [5] is less than 4.05. Further, the pIC50 at Mu-type opioid receptor [1] is 7.00; in assay [2], 5.15; in assay [3], 5.64. The same molecule yielded an Emax on Mu-type opioid receptor [4] of 0%.

On Mu-type opioid receptor [5], `COCCN(C(=O)c1ccc(Cl)c(Cl)c1)C1c2ccccc2C=CC1N1CCN(c2ccccc2)CC1` (racemic) showed a pEC50 of less than 4.05. The negative logarithm of the IC50 (pIC50) was 6.35 at Mu-type opioid receptor [1], less than 5.00 in assay [2] and 5.44 in assay [3]. Moreover, on Mu-type opioid receptor [4], the Emax was 60%.

In the case of `COCCN(C(=O)c1cc(C)nn1C)C1c2ccccc2CCC1c1ccsc1` (racemic), the pIC50 at Mu-type opioid receptor [1] was 5.31; in assay [2], less than 5.00; in assay [3], 5.89.
